Test results: ChEMBL document CHEMBL3612011, “Synthesis of new opioid derivatives with a propellane skeleton and their pharmacologies: Part 5, novel pentacyclic propellane derivatives with a 6-amide side chain” (Bioorg Med Chem, 2015)
The source made the active and inactive calls. The rule behind the calls is not given here.

Tests used:
[1] = Selectivity index, ratio of Ki for MOR in guinea pig cerebellum membranes to Ki for KOR in mouse whole brain membranes without cerebellum; assay type: cell membranes
[2] = molecular target: Kappa-type opioid receptor (Mus musculus, UniProt P33534); assay: Displacement of [3H]U69,593 from KOR in mouse whole brain membranes without cerebellum; assay type: cell membranes, Membrane
[3] = molecular target: Delta-type opioid receptor (Mus musculus, UniProt P32300); assay: Displacement of [3H]DPDPE from DOR in mouse whole brain membranes without cerebellum; assay type: cell membranes, Membrane
[4] = organism: Mus musculus; assay: Selectivity index, ratio of Ki for DOR in mouse whole brain membranes without cerebellum to Ki for KOR in mouse whole brain membranes without cerebellum; assay type: cell membranes
[5] = molecular target: Mu-type opioid receptor (Cavia porcellus, UniProt P97266); assay: Displacement of [3H]DAMGO from MOR in guinea pig cerebellum membranes; assay type: cell membranes, Membrane
[6] = Therapeutic index, ratio of ED50 for induction of sedation in ICR mouse by spontaneous locomotor activity test to ED50 for antinociceptive activity in ICR mouse by acetic acid abdominal constriction test; assay type: organism-based, Abdomen; details: in vivo, read-out: Ratio ED50
[7] = molecular target: T1, Kappa-type opioid receptor (Homo sapiens, UniProt P41145); assay: Agonist activity at human KOR expressed in CHO cell membranes by [35S]GTPgammaS binding assay relative to U69,593; assay type: functional
[8] = molecular target: T1, Kappa-type opioid receptor; assay: Agonist activity at human KOR expressed in CHO cell membranes by [35S]GTPgammaS binding assay; assay type: functional
[9] = test system: Mus musculus; assay: Antinociceptive activity in ICR mouse assessed as reduction in acetic acid-induced abdominal writhing dosed subcutaneously 15 mins before acetic acid challenge; assay type: functional; details: Abdomen; for ED50: sc
[10] = organism: Mus musculus; assay: Induction of sedation in ICR mouse by spontaneous locomotor activity test; assay type: organism-based; details: in vivo
[11] = test system: Mus musculus; assay: Antinociceptive activity in ICR mouse assessed as reduction in acetic acid-induced abdominal writhing dosed subcutaneously 15 mins before acetic acid challenge and treated 24 hrs after 10 mg/kg, sc KOR antagonist nor-Binaltorphimin dosing; assay type: functional, organism-based; details: Abdomen

Chain of Kappa-type opioid receptor (Mus musculus, UniProt P33534) (P33534 whole entry): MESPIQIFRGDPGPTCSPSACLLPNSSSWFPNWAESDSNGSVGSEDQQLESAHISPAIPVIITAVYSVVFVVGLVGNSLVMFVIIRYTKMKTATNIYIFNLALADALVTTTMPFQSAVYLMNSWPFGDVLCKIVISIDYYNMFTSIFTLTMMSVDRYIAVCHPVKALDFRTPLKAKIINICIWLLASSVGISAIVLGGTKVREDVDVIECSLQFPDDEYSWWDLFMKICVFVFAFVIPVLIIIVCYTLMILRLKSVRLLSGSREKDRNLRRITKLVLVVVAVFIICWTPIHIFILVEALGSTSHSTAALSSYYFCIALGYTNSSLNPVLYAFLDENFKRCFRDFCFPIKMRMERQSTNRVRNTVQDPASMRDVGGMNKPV
Chain of Mu-type opioid receptor (P97266 whole entry): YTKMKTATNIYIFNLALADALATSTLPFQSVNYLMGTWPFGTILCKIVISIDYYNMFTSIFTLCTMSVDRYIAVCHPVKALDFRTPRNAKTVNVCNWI
Chain of Delta-type opioid receptor (P32300 whole entry): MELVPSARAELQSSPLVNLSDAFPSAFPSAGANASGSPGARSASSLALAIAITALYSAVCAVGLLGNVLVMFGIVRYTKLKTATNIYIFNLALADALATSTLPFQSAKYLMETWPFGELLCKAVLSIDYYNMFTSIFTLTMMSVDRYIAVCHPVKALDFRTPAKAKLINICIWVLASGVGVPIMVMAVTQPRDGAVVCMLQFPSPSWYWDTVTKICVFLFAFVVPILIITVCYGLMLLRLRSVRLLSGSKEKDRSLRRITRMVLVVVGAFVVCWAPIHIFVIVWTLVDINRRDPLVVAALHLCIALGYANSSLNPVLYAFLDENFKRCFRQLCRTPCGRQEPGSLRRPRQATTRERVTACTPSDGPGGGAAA
T1 sequence (P41145 whole entry): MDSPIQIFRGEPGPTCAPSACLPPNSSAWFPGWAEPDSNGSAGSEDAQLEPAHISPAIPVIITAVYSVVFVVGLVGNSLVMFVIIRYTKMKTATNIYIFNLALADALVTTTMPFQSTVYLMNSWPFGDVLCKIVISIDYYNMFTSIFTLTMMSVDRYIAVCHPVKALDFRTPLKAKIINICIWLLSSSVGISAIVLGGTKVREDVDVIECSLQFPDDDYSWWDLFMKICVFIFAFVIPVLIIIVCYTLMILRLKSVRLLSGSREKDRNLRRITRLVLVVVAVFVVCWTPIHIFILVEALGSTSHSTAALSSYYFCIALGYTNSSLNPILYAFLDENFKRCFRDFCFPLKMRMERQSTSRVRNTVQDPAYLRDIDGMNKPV

Compound	Ratio Ki [1]	Ki [2] [nM]	Ki [3] [nM]	Ratio Ki [4]	Ki [5] [nM]	selectivity ratio [6]	Emax [7] [%]	EC50 [8] [nM]	inhibition [9]	ED50 [9] [mg/kg]	ED50 [10] [mg/kg]	inhibition [11]
CN(C(=O)Cc1ccccc1)[C@@H]1C[C@@]23CCN(CC4CC4)[C@H]4C=C[C@@H]1C[C@]42Cc1ccc(O)cc13	1.75	0.24	1.66	6.92	0.42	–	–	–	–	–	–	–
CN(C(=O)Cc1ccccc1)[C@H]1C[C@@]23CCN(CC4CC4)[C@H]4C=C[C@@H]1C[C@]42Cc1ccc(O)cc13	7.05	1.73	4.5	2.6	12.2	–	–	–	–	–	–	–
CN(C(=O)c1ccccc1)[C@H]1C[C@@]23CCN(CC4CC4)[C@H]4C=C[C@@H]1C[C@]42Cc1ccc(O)cc13	3.63	13.1	6.46	0.493	47.6	–	–	–	–	–	–	–
CN(C(=O)/C=C/c1ccoc1)[C@H]1C[C@@]23CCN(CC4CC4)[C@H]4CC[C@@H]1C[C@]42Cc1ccc(O)cc13	5.73	8.36	19.1	2.28	47.9	–	–	–	–	–	–	–
CN(C(=O)/C=C/c1ccoc1)[C@H]1C[C@@]23CCN(CC4CC4)[C@H]4C=C[C@@H]1C[C@]42Cc1ccc(O)cc13.Cl	17	0.82	14.2	17.3	13.9	13.1	108	11.8	Dose-dependent effect	0.589	7.74	inactive
CN(C(=O)c1ccccc1)[C@H]1C[C@@]23CCN(CC4CC4)[C@H]4CCC1C[C@]42Cc1ccc(O)cc13 (single isomer, unassigned)	4.06	13.8	1.27	0.092	56	–	–	–	–	–	–	–
CN(C(=O)c1ccccc1)[C@@H]1C[C@@]23CCN(CC4CC4)[C@H]4C=C[C@@H]1C[C@]42Cc1ccc(O)cc13	0.61	4.46	2.23	0.5	2.7	–	–	–	–	–	–	–
CN(C(=O)/C=C/c1ccoc1)[C@@H]1CC[C@@]2(O)[C@H]3Cc4ccc(O)c5c4[C@@]2(CCN3CC2CC2)[C@H]1O5.Cl [NALFURAFINE HYDROCHLORIDE]	–	–	–	–	–	–	–	–	–	0.00622	0.0344	–
CN(C(=O)Cc1ccccc1)[C@H]1C[C@@]23CCN(CC4CC4)[C@H]4CCC1C[C@]42Cc1ccc(O)cc13 (single isomer, unassigned)	5.42	11	15	1.36	59.6	–	–	–	–	–	–	–
CN(C(=O)CCc1ccccc1)[C@H]1C[C@@]23CCN(CC4CC4)[C@H]4CCC1C[C@]42Cc1ccc(O)cc13 (single isomer, unassigned)	0.966	11.9	32.4	2.72	11.5	–	–	–	–	–	–	–
CN(C(=O)/C=C/c1ccoc1)[C@@H]1C[C@@]23CCN(CC4CC4)[C@H]4CC[C@@H]1C[C@]42Cc1ccc(O)cc13	1.14	0.204	0.182	0.89	0.232	–	–	–	–	–	–	–
CN(C(=O)CCc1ccccc1)[C@H]1C[C@@]23CCN(CC4CC4)[C@H]4C=C[C@@H]1C[C@]42Cc1ccc(O)cc13	2.34	1.86	10.7	5.75	4.36	–	–	–	–	–	–	–
CN(C(=O)CCc1ccccc1)[C@@H]1C[C@@]23CCN(CC4CC4)[C@H]4CCC1C[C@]42Cc1ccc(O)cc13 (single isomer, unassigned)	2.03	0.113	1.15	10.2	0.229	–	–	–	–	–	–	–
CN(C(=O)Cc1ccccc1)[C@@H]1C[C@@]23CCN(CC4CC4)[C@H]4CCC1C[C@]42Cc1ccc(O)cc13 (single isomer, unassigned)	1.45	0.136	1.19	8.75	0.197	–	–	–	–	–	–	–
CN(C(=O)c1ccccc1)[C@@H]1C[C@@]23CCN(CC4CC4)[C@H]4CCC1C[C@]42Cc1ccc(O)cc13 (single isomer, unassigned)	0.516	0.543	3.65	6.72	0.28	–	–	–	–	–	–	–
CN(C(=O)CCc1ccccc1)[C@@H]1C[C@@]23CCN(CC4CC4)[C@H]4C=C[C@@H]1C[C@]42Cc1ccc(O)cc13	1.09	0.47	3.52	7.49	0.51	–	–	–	–	–	–	–
CN(C(=O)/C=C/c1ccoc1)[C@@H]1C[C@@]23CCN(CC4CC4)[C@H]4C=C[C@@H]1C[C@]42Cc1ccc(O)cc13	2.48	0.23	3.98	17.3	0.57	–	–	–	–	–	–	–
